{"source": "patent US10508104B2", "about": "“6-hydroxy-5-(phenyl/heteroarylsulfonyl)pyrimidin-4(1H)-one as APJ agonists” (Bristol-Myers Squibb Company, priority 2016, dated 2019)", "note": "pEC50: −log10 of the molar value.", "data": [{"molecular_target": "human APJ receptor (Homo sapiens (Human), UniProt P35414)", "sequence (P35414 whole entry)": "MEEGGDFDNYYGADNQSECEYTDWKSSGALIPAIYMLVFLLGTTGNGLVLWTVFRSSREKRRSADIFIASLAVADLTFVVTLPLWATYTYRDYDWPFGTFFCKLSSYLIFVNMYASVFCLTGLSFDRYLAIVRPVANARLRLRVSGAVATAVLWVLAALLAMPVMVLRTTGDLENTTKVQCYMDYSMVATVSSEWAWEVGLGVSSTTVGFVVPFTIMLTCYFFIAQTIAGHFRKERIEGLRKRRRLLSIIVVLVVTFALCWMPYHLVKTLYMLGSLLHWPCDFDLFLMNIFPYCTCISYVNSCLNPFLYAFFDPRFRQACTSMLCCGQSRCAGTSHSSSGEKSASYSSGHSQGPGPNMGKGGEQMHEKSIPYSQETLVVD", "assay": "Intracellular cAMP accumulation assay (APJ hcAMP, HTRF)", "format": "cell-based", "settings": "HEK293 cells stably expressing human APJ receptor; inhibition of forskolin-mediated cAMP production; read-out: Human APJ cAMP EC50 Potency range", "in_short": "(§1)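 HEK293 cells stably expressing human APJ, 5,000 per well, incubated 30 min at rt with compound, […] and 2 μM forskolin. cAMP measured by HTRF against a cAMP standard curve as inhibition of forskolin-driven production. EC50 from variable-slope sigmoidal fit.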", "values": [{"smiles": "CCCCc1nc(=O)c(S(=O)(=O)c2ccc(-c3ccccc3C(=O)OC)cn2)c(O)n1[C@@H](CC)c1cccc(C#N)c1", "note": "[Example 481, methyl 2-[6-({2-butyl-1-[(1S)-1-(3-cyanophenyl)propyl]-6-hydroxy-4-oxo-1,4-dihydropyrimidin-5-yl}sulfonyl)pyridin-3-yl]benzoate]", "pEC50": "8.00 to 11.00"}, {"smiles": "CCCCc1nc(=O)c(S(=O)(=O)c2ccc(-c3ccnc(F)c3C)cc2)c(O)n1[C@@H](COC)c1cccc(C(N)=O)c1", "note": "[Example 412, 3-[(1R)-1-{2-butyl-5-[4-(2-fluoro-3-methylpyridin-4-yl)benzenesulfonyl]-6-hydroxy-4-oxo-1,4-dihydropyrimidin-1-yl}-2-methoxyethyl]benzamide]", "pEC50": "8.00 to 11.00"}, {"smiles": "CCCCc1nc(=O)c(S(=O)(=O)c2ccc(-c3cccnc3C)cc2)c(O)n1[C@@H](CC)c1ccc(F)cc1", "note": "[Example 425, 2-butyl-1-[(1S)-1-(4-fluorophenyl)propyl]-6-hydroxy-5-[4-(2-methylpyridin-3-yl)benzenesulfonyl]-1,4-dihydropyrimidin-4-one]", "pEC50": "8.00 to 11.00"}, {"smiles": "CC[C@@H](c1cccc(C#N)c1)n1c(COC(C)C)nc(=O)c(S(=O)(=O)c2ccc(-c3ccncc3C)cc2)c1O", "note": "[Example 383, 3-[(1S)-1-{6-hydroxy-5-[4-(3-methylpyridin-4-yl)benzenesulfonyl]-4-oxo-2-[(propan-2-yloxy)methyl]-1,4-dihydropyrimidin-1-yl}propyl]benzonitrile]", "pEC50": "8.00 to 11.00"}, {"smiles": "CCCCc1nc(=O)c(S(=O)(=O)c2ccc(-c3ccccc3C(=O)N3CCOCC3)cc2)c(O)n1[C@@H](CC)c1cccc(C#N)c1", "note": "[Example 489, 3-[(1S)-1-(2-butyl-6-hydroxy-5-{[2′-(morpholine-4-carbonyl)-[1,1′-biphenyl]-4-yl)sulfonyl}-4-oxo-1,4-dihydropyrimidin-1-yl)propyl]benzonitrile]", "pEC50": "8.00 to 11.00"}, {"smiles": "CCCCc1nc(=O)c(S(=O)(=O)c2ccc(C3CC3)cc2)c(O)n1-c1c(OC)cccc1OC", "note": "[Example 85, 2-Butyl-5-((4-cyclopropylphenyl)sulfonyl)-1-(2,6-dimethoxyphenyl)-6-hydroxypyrimidin-4(1H)-one]", "pEC50": "8.00 to 11.00"}, {"smiles": "CC[C@@H](c1cccc(C#N)c1)n1c(CC2CC2)nc(=O)c(S(=O)(=O)c2ccc(-c3cnccc3C#N)cc2)c1O", "note": "[Example 471, 3-[4-({1-[(1S)-1-(3-cyanophenyl)propyl]-2-(cyclopropylmethyl)-6-hydroxy-4-oxo-1,4-dihydropyrimidin-5-yl}sulfonyl)phenyl] pyridine-4-carbonitrile]", "pEC50": "8.00 to 11.00"}, {"smiles": "CC[C@@H](c1cccc(C#N)c1)n1c(CC2CC2)nc(=O)c(S(=O)(=O)c2ccc(-c3ccccc3C(N)=O)cc2)c1O", "note": "[Example 468, 4′-({1-[(1S)-1-(3-cyanophenyl)propyl]-2-(cyclopropylmethyl)-6-hydroxy-4-oxo-1,4-dihydropyrimidin-5-yl}sulfonyl)-[1,1′-biphenyl]-2-carboxamide]", "pEC50": "8.00 to 11.00"}, {"smiles": "CCCCc1nc(=O)c(S(=O)(=O)c2ccc(-c3ccc(F)nc3C)cc2)c(O)n1[C@@H](CC)c1ccccc1F", "note": "[Example 431, 2-butyl-5-[4-(6-fluoro-2-methylpyridin-3-yl)benzenesulfonyl]-1-[(1S)-1-(2-fluorophenyl)propyl]-6-hydroxy-1,4-dihydropyrimidin-4-one]", "pEC50": "8.00 to 11.00"}, {"smiles": "CCCCc1nc(=O)c(S(=O)(=O)c2ccc(-c3cccnc3C)cn2)c(O)n1[C@@H](CC)c1cccc(C#N)c1", "note": "[Example 455, 3-[(1S)-1-[2-butyl-6-hydroxy-5-({2′-methyl-[3,3′-bipyridine]-6-yl}sulfonyl)-4-oxo-1,4-dihydropyrimidin-1-yl]propyl]benzonitrile]", "pEC50": "8.00 to 11.00"}, {"smiles": "CCCCc1nc(=O)c(S(=O)(=O)c2ccc(-c3cccc4c3C(=O)NC4)cc2)c(O)n1[C@H](c1cccc(C#N)c1)C1CC1", "note": "[Example 524, 3-[(S)-{2-butyl-6-hydroxy-4-oxo-5-[4-(3-oxo-2,3-dihydro-1H-isoindol-4-yl)benzenesulfonyl]-1,4-dihydropyrimidin-1-yl}(cyclopropyl)methyl] benzonitrile]", "pEC50": "8.00 to 11.00"}, {"smiles": "CCCCc1nc(=O)c(S(=O)(=O)C2CCNCC2)c(O)n1-c1c(OC)cccc1OC", "note": "[Example 106, 2-Butyl-1-(2,6-dimethoxyphenyl)-6-hydroxy-5-(piperidin-4-ylsulfonyl)pyrimidin-4(1H)-one]", "pEC50": "7.00 to 8.00"}, {"smiles": "COC[C@@H](c1cc(F)cc(F)c1)n1c(COC(C)C)nc(=O)c(S(=O)(=O)c2ccc(-c3cnccc3C#N)cc2)c1O", "note": "[Example 407, 3-[4-({1-[(1R)-1-(3,5-difluorophenyl)-2-methoxyethyl]-6-hydroxy-4-oxo-2-[(propan-2-yloxy)methyl]-1,4-dihydropyrimidin-5-yl}sulfonyl)phenyl] pyridine-4-carbonitrile]", "pEC50": "8.00 to 11.00"}, {"smiles": "CC[C@@H](c1cc(F)cc(C#N)c1)n1c(CC2CC2)nc(=O)c(S(=O)(=O)c2ccc(-c3ccccc3C(N)=O)cc2)c1O", "note": "[Example 502, 4′-({1-[(1S)-1-(3-cyano-5-fluorophenyl)propyl]-2-(cyclopropylmethyl)-6-hydroxy-4-oxo-1,4-dihydropyrimidin-5-yl}sulfonyl)-[1,1′-biphenyl]-2-carboxamide]", "pEC50": "8.00 to 11.00"}]}, {"molecular_target": "human APJ receptor (Homo sapiens (Human), UniProt P35414)", "assay": "Intracellular cAMP accumulation assay (APJ hcAMP, HTRF)", "format": "cell-based", "settings": "human APJ, cAMP accumulation; read-out: Human APJ cAMP EC50 Potency range", "in_short": "as §1", "values": [{"smiles": "CCCCc1nc(=O)c(S(=O)(=O)c2ccc(-c3ccc(F)nc3C)cc2)c(O)n1[C@@H](C)c1ccccc1OC", "note": "[Example 240, 2-butyl-5-[4-(6-fluoro-2-methylpyridin-3-yl)benzenesulfonyl]-6-hydroxy-1-[(1S)-1-(2-methoxyphenyl)ethyl]-1,4-dihydropyrimidin-4-one]", "pEC50": "8.00 to 11.00"}, {"smiles": "COC[C@@H](c1ccccc1)n1c(COC(C)C)nc(=O)c(S(=O)(=O)c2ccc(-c3ccnc(F)c3C)c(F)c2)c1O", "note": "[Example 333, 5-[3-fluoro-4-(2-fluoro-3-methylpyridin-4-yl)benzenesulfonyl]-6-hydroxy-1-[(1R)-2-methoxy-1-phenylethyl]-2-[(propan-2-yloxy)methyl]-1,4-dihydropyrimidin-4-one]", "pEC50": "8.00 to 11.00"}, {"smiles": "CCCCCc1nc(=O)c(S(=O)(=O)c2ccc(-c3ccnc(F)c3C)cc2)c(O)n1[C@@H](COC)c1ccccc1", "note": "[Example 242, 5-[4-(2-fluoro-3-methylpyridin-4-yl)benzenesulfonyl]-6-hydroxy-1-[(1R)-2-methoxy-1-phenylethyl]-2-pentyl-1,4-dihydropyrimidin-4-one]", "pEC50": "8.00 to 11.00"}, {"smiles": "CCOCc1nc(=O)c(S(=O)(=O)c2ccc(-c3cccnc3C)cc2)c(O)n1[C@H]1CCc2ccccc21", "note": "[Example 319, 1-[(1S)-2,3-dihydro-1H-inden-1-yl]-2-(ethoxymethyl)-6-hydroxy-5-[4-(2-methylpyridin-3-yl)benzenesulfonyl]-1,4-dihydropyrimidin-4-one]", "pEC50": "8.00 to 11.00"}, {"smiles": "CCOCc1nc(=O)c(S(=O)(=O)c2ccc(-c3ccncc3C)cc2)c(O)n1[C@H]1CCc2ccccc21", "note": "[Example 323, 1-[(1S)-2,3-dihydro-1H-inden-1-yl]-2-(ethoxymethyl)-6-hydroxy-5-[4-(3-methylpyridin-4-yl)benzenesulfonyl]-1,4-dihydropyrimidin-4-one]", "pEC50": "8.00 to 11.00"}, {"smiles": "COC[C@@H](c1ccccc1)n1c(COC(C)C)nc(=O)c(S(=O)(=O)c2ccc(-c3ccc(F)nc3)c(F)c2)c1O", "note": "[Example 335, 5-[3-fluoro-4-(6-fluoropyridin-3-yl)benzenesulfonyl]-6-hydroxy-1-[(1R)-2-methoxy-1-phenylethyl]-2-[(propan-2-yloxy)methyl]-1,4-dihydropyrimidin-4-one]", "pEC50": "8.00 to 11.00"}]}, {"molecular_target": "human APJ receptor (Homo sapiens (Human), UniProt P35414)", "assay": "Intracellular cAMP accumulation assay (APJ hcAMP, HTRF)", "format": "cell-based", "settings": "human APJ, intracellular cAMP accumulation; read-out: Human APJ cAMP EC50 Potency range", "in_short": "as §1", "values": [{"smiles": "CCCCc1nc(=O)c(S(=O)(=O)c2ccc(C(=O)NC3CC3)cc2)c(O)n1-c1c(OC)cccc1OC", "note": "[Example 91, 4-{[2-butyl-1-(2,6-dimethoxyphenyl)-6-hydroxy-4-oxo-1,4-dihydropyrimidin-5-yl]suffonyl}-N-cyclopropylbenzamide]", "pEC50": "8.00 to 11.00"}, {"smiles": "CCCCc1nc(=O)c(S(=O)(=O)c2ccc(-c3nc(C(=O)OCC)co3)cc2)c(O)n1-c1c(OC)cccc1OC", "note": "[Example 83, ethyl 2-(4-{[2-butyl-1-(2,6-dimethoxyphenyl)-6-hydroxy-4-oxo-1,4-dihydropyrimidin-5-yl]sulfonyl}phenyl)-1,3-oxazole-4-carboxylate]", "pEC50": "8.00 to 11.00"}, {"smiles": "CCCCc1nc(=O)c(S(=O)(=O)c2ccc(-c3cc(C)nc(C)c3)cc2)c(O)n1[C@H]1CCc2ccccc21", "note": "[Example 161, 2-butyl-1-[(1S)-2,3-dihydro-1H-inden-1-yl]-5-[4-(2,6-dimethylpyridin-4-yl)benzenesulfonyl]-6-hydroxy-1,4-dihydropyrimidin-4-one]", "pEC50": "6.52 to 7.00"}, {"smiles": "COC[C@@H](c1ccccc1)n1c(CC2CC2)nc(=O)c(S(=O)(=O)c2ccc(-c3ccc(F)nc3)cc2)c1O", "note": "[Example 182, 2-(cyclopropylmethyl)-5-[4-(6-fluoropyridin-3-yl)benzenesulfonyl]-6-hydroxy-1-[(1R)-2-methoxy-1-phenylethyl]-1,4-dihydropyrimidin-4-one]", "pEC50": "8.00 to 11.00"}, {"smiles": "CCCCc1nc(=O)c(S(=O)(=O)c2ccc(C)cc2)c(O)n1[C@@H](C)c1ccccc1", "note": "[Example 129, 2-butyl-6-hydroxy-5-(4-methylbenzenesulfonyl)-1-[(1S)-1-phenylethyl]-1,4-dihydropyrimidin-4-one]", "pEC50": "6.52 to 7.00"}, {"smiles": "CCCCc1nc(=O)c(S(=O)(=O)c2ccc(-c3ccc(C(N)=O)cc3)cc2)c(O)n1-c1c(OC)cccc1OC", "note": "[Example 44, 4-(4-{[2-butyl-1-(2,6-dimethoxyphenyl)-6-hydroxy-4-oxo-1,4-dihydropyrimidin-5-yl]sulfonyl}phenyl) benzamide]", "pEC50": "8.00 to 11.00"}, {"smiles": "CCCCc1nc(=O)c(S(=O)(=O)c2ccc(-c3ccc(Cl)nc3C)cc2)c(O)n1-c1c(OC)cccc1OC", "note": "[Example 61, 2-butyl-5-[4-(6-chloro-2-methylpyridin-3-yl)benzenesulfonyl]-1-(2,6-dimethoxyphenyl)-6-hydroxy-1,4-dihydropyrimidin-4-one]", "pEC50": "8.00 to 11.00"}, {"smiles": "CCCCc1nc(=O)c(S(=O)(=O)c2ccc(-c3cccs3)cc2)c(O)n1-c1c(OC)cccc1OC", "note": "[Example 81, 2-butyl-1-(2,6-dimethoxyphenyl)-6-hydroxy-5-[4-(thiophen-2-yl)benzenesulfonyl]-1,4-dihydropyrimidin-4-one]", "pEC50": "8.00 to 11.00"}]}]}
